Several values for one entry are separate records, joined by “and”; a condition that tells them apart may be missing. Identical values can stand only once.
Assays:
[1] = test system: influenza virus A/WSN/33 (H1N1); assay: organism not typed; type: cell-based; settings: MDCK, 72 h; for EC50: read-out: Cytopathic Effect Assay (A/WSN/33, H1N1) EC50; for inhibition at 12.5 µM / inhibition at 25 µM / inhibition at 50 µM / inhibition at 100 µM: H1N1|WSN, read-out: Antiviral activity in CPE assay
[2] = test system: influenza virus A/WSN/33 (H1N1); assay: Plaque inhibition assay in MDCK cells; type: cell-based; settings: MDCK, read-out: Plaque Inhibition Assay (A/WSN/33, H1N1) Inhibition Rate; for inhibition at 100 µM: concentration 100 µM; for inhibition at 12.5 µM: concentration 12.5 µM
in vitro [3] = type: cell-based, canine; settings: dog
Experimental: (§1) The 3-(4,5-dimethylthiazol-2-yl)-2,5-diphenyltetrazolium bromide (MTT) method was performed to assess the cytotoxicity of target compounds in MDCK cells and HEK293T cells. Firstly, MDCK cells or HEK293T cells were seeded into the 96-well plate. Then, the media containing test compounds replaced the growth media after 48 h. Incubate MDCK cells or HEK293T cells with test compounds for 72 h at 37 °C in a humidified 5% CO2 incubator. Later, MTT solution (5 mg/mL in PBS) was added into each well and plates were incubated for 4 h at 37 °C. Then, add a solubilization solution to lyse cells. Finally, absorbance was read at 620 nm using an ELISA plate reader (Tecan Sunrise) after 3 h of further incubation at 37 °C. We set the values obtained from the wells treated with only DMSO as 100% of viable cells.

MDCK cells = assay: in vitro; type: cell-based, canine; settings: dog, 72 h
Experimental: as §1

in vitro [4] = type: cell-based; settings: human
Experimental: as §1

HEK293T cells = assay: in vitro; type: cell-based; settings: human, 72 h
Experimental: as §1

PA-PB1 endonuclease = test system: PA-PB1 endonuclease; design: method as in supplement 1-7; settings: training and test set compounds collected from literature; ref supplement 1-7; read-out: IC50 value Experimental (PA-PB1 endonuclease inhibitors); cited from earlier work

Row | SMILES | EC50 [1] | melting point | CC50 at 72 h (in vitro [3]) | MDCK cells survival rate (MDCK cells; 12.5 µmol·L−1) | MDCK cells survival rate (MDCK cells; 25 µmol·L−1) | MDCK cells survival rate (MDCK cells; 50 µmol·L−1) | MDCK cells survival rate (MDCK cells; 100 µmol·L−1) | CC50 at 72 h (in vitro [4]) | HEK293T cells survival rate (HEK293T cells; 3.125 µmol·L−1) | HEK293T cells survival rate (HEK293T cells; 6.25 µmol·L−1) | HEK293T cells survival rate (HEK293T cells; 12.5 µmol·L−1) | HEK293T cells survival rate (HEK293T cells; 25 µmol·L−1) | HEK293T cells survival rate (HEK293T cells; 50 µmol·L−1) | HEK293T cells survival rate (HEK293T cells; 100 µmol·L−1) | inhibition at 12.5 µM [1] | inhibition at 25 µM [1] | inhibition at 50 µM [1] | inhibition at 100 µM [1] | IC50 (PA-PB1 endonuclease) | other results
1 | O=C(O)c1ccc(Nc2ccnc3cc(C(F)(F)F)ccc23)cc1 [4-{[7-(Trifluoromethyl)quinolin-4-yl]amino}benzoic acid] | 22.9 µM | 323.7 to 324.9 °C | – | – | – | – | – | – | – | – | – | – | – | – | – | – | – | – | – | inhibition at 50 µM ([2]; concentration 50 µM): 50%
2 | CCCNC(=O)c1ccc(Nc2ccnc3cc(C(F)(F)F)ccc23)cc1 [Compound G03, N-Propyl-4-{[7-(trifluoromethyl)quinolin-4-yl]amino}benzamide] | 10 ± 1.9 µM | 242.5 to 243.4 °C | > 100 µM | 107.23±8.32% | 128.70±3.04% | 132.67±1.65% | 144.22±4.46% | > 100 µM | 98.97±9.80% | 89.61±8.87% | 97.78±4.47% | 91.10±7.09% | 84.12±2.84% | 74.22±4.02% | 54.9 ± 4.62% | 56.7 ± 11.7% | 70.3 ± 9.33% | 78.7 ± 8.35% | – | inhibition at 100 µM [2]: < 10%
3 | CCN(CC)CCCNC(=O)c1ccc(Nc2ccnc3cc(C(F)(F)F)ccc23)cc1 [Compound G06, N-[3-(Diethylamino)propyl]-4-{[7-(trifluoromethyl)quinolin-4-yl]amino}benzamide] | > 100 µM | 216.5 to 219.3 °C | > 100 µM | 95.22±3.96% | 96.67±0.91% | 84.01±5.28% | 79.75±2.72% | > 100 µM | 107.15±2.76% | 90.35±0.85% | 96.59±4.26% | 85.50±2.49% | 85.25±2.63% | 76.47±9.94% | 16.7 ± 1.15% | 13.1 ± 0.69% | 12.8 ± 0.69% | 11.2 ± 0.23% | – | inhibition at 12.5 µM [2]: < 10%
4 | O=C(NCCCN1CCOCC1)c1ccc(Nc2ccnc3cc(C(F)(F)F)ccc23)cc1 [Compound G08, N-(3-Morpholinopropyl)-4-{[7-(trifluoromethyl)quinolin-4-yl]amino}benzamide] | > 100 µM | 207.3 to 209.1 °C | > 100 µM | 95.86±1.24% | 76.43±4.79% | 75.20±0.25% | 78.41±2.97% | > 100 µM | 100.86±3.39% | 97.00±3.10% | 95.72±3.30% | 95.56±2.29% | 98.07±1.80% | 112.13±1.41% | 44.3 ± 3.44% | 45.6 ± 9.4% | 31.1 ± 8.71% | 15.4 ± 0.23% | – | inhibition at 25 µM ([2]; concentration 25 µM): 11.5%
5 | O=C(NC1CCCCC1)c1ccc(Nc2ccnc3cc(C(F)(F)F)ccc23)cc1 [Compound G09, N-Cyclohexyl-4-{[7-(trifluoromethyl)quinolin-4-yl]amino}benzamide] | > 100 µM | 236.5 to 237.3 °C | > 100 µM | 156.36±6.13% | 124.74±4.87% | 130.46±12.65% | 133.61±3.89% | > 100 µM | 106.48±6.90% | 98.20±3.74% | 92.83±3.70% | 96.79±0.62% | 101.55±2.23% | 81.22±3.80% | 31.9 ± 0.69% | 22.9 ± 3.9% | 21.4 ± 0.92% | 23.2 ± 3.9% | – | inhibition at 12.5 µM [2]: 46.9%
6 | O=C(NC1CCC(O)CC1)c1ccc(Nc2ccnc3cc(C(F)(F)F)ccc23)cc1 (stereo not shown) [Compound G10, N-(4-Hydroxycyclohexyl)-4-{[7-(trifluoromethyl)quinolin-4-yl]amino}benzamide] | 10.4 ± 0.22 µM | 324 to 325 °C | > 100 µM | 84.64±7.10% | 109.11±15.21% | 127.95±8.15% | 110.17±2.79% | > 100 µM | 108.01±12.84% | 104.56±4.92% | 98.12±8.96% | 98.50±8.84% | 99.09±8.41% | 109.24±7.99% | 48.9 ± 2.01% | 58 ± 1.69% | 66.2 ± 2.87% | 63.8 ± 5.18% | – | inhibition at 100 µM [2]: 7.41%
7 | O=C(c1ccc(Nc2ccnc3cc(C(F)(F)F)ccc23)cc1)N1CCN(c2cccc(C(F)(F)F)c2)CC1 [Compound G16, {4-[3-(Trifluoromethyl)phenyl]piperazin-1-yl}{4-{[7-(trifluoromethyl)quinolin-4-yl]amino}phenyl}methanone] | > 100 µM | 217 to 218.5 °C | > 100 µM | 83.03±1.26% | 85.52±2.56% | 92.23±7.81% | 103.91±10.21% | > 100 µM | 89.31±3.06% | 79.52±2.87% | 80.26±3.54% | 75.35±5.51% | 70.68±3.36% | 66.51±2.68% | 15.7 ± 1.33% | 36.8 ± 3.16% | 33.8 ± 2.71% | 45.7 ± 2.09% | – | –
8 | Cc1cc(-c2ccccc2)n2nc(C(=O)Nc3sc4c(c3C(N)=O)CCCCC4)nc2n1 [Compound H01] | – | – | – | – | – | – | – | – | – | – | – | – | – | – | – | – | – | – | 1.1 µM | –
9 | NC(=O)c1c(NC(=O)c2nc3nc(-c4ccccc4)cc(C(F)(F)F)n3n2)sc2c1CCCC2 [Compound H02, N-(3-carbamoyl-4,5,6,7-tetrahydrobenzo[b]thiophen-2-yl)-5-phenyl-7-(trifluoromethyl)-[1,2, 4]triazolo[1,5-a]pyrimidine-2-carboxamide] | – | – | – | – | – | – | – | – | – | – | – | – | – | – | – | – | – | – | 7.5 µM and 6.2 µM | –
10 | Cc1cc(-c2ccccc2)n2nc(C(=O)Nc3sc4c(c3C(N)=O)CCC4)nc2n1 [Compound H03] | – | – | – | – | – | – | – | – | – | – | – | – | – | – | – | – | – | – | 6.2 µM and 7.5 µM | –
11 | CCC(C)NC(=O)c1ccccc1NC(=O)c1cccc(S(=O)(=O)Nc2ccccc2)c1 (stereo not shown) [Compound H04] | – | – | – | – | – | – | – | – | – | – | – | – | – | – | – | – | – | – | 9.2 µM | –
12 | O=C1c2ccccc2C(=O)c2c1cc(Nc1ccccc1)c1nsnc21 [Compound H10] | – | – | – | – | – | – | – | – | – | – | – | – | – | – | – | – | – | – | 9.5 µM | –

Source: paper PMC9181126, “Design, Synthesis, Molecular Docking Analysis and Biological Evaluations of 4-[(Quinolin-4-yl)amino]benzamide Derivatives as Novel Anti-Influenza Virus Agents” (International Journal of Molecular Sciences, 2022)
